How the values were obtained:
[1] = system: human neutrophils; test: Citrullinated histone H3 (CitH3) NET induction in PMA-stimulated human neutrophils; format: cell-based; conditions: for NET induction, measured as CitH3 staining: drugs 10, 2, 0.4, 0.08 μM or GSK484 10 μM for 1 h, then 1 μM PMA 3 h, FIGS. 1A and 5D
Protocol: FIGS. 1A-H. Class I/II HDACs drive NET formation • (A and B) Freshly purified human (A) or mouse (B) neutrophils were treated with the indicated HDAC inhibitors at different doses (10, 2, 0.4, 0.08 μM), or with GSK484 (10 μM), for 1 h and then stimulated with 1 μM PMA for 3 h. Cells were fixed and stained with anti-citrullinated histone H3 (CitH3) antibody. NETosis induction was measured as the level of anti-CitH3 fluorescent signal. PMA alone represents 100% of NET induction. “-”: Cells treated with the highest dose of the indicated drug but not activated with PMA. • (C and D) Human neutrophils were treated, or not, with ricolinostat or GSK484 and then stimulated with 1 μM PMA. NETosis induction was measured as area of nuclei stained with DAPI. (C) 3D reconstruction of nuclei in each treatment (grid size 7.8 μm). (D) Quantification of DAPI signal from multiple fields of view (D) (n=9 for unstimulated, not pretreated with any drug [NT] and ricolinostat, n=7 for GSK484). • (E and F) Human neutrophils were treated as in (C-D), and immunoblot analysis of the indicated proteins was performed. Relative quantification of band intensity was analyzed with ImageJ software (F). White violins plots depict the quantification of histone H3 acetylation; red violin plots depict the quantification of histone H3 citrullination. Immunoblot in E is representative of four independent experiments. Gasdermin D NT, gasdermin D N terminal; pMLKL, phospho-MLKL. • (G) Human (left) or murine (right) neutrophils were treated, or not, with ricolinostat (10 μM) and then stimulated with 1 μM PMA for 3 h. ROS production was measured by luminescence with luminol-HRP. Histograms represent the total amount of ROS produced overtime. • (H) Murine neutrophils were treated, or not, with ricolinostat (10 μM) and then stimulated with fluorescent E. coli at the indicated multiplicity of infection (MOI) for 1 h. The histogram represents the percentage of neutrophils positive for E. coli staining. Graphs show mean±SEM. Statistics were calculated using one-way ANOVA (A, B, D) and two-way ANOVA (F, G, H) (*p<0.05; **p<0.01; ****p<0.0001. n.s., not significant). Statistics refers to the comparison with neutrophils stimulated with PMA alone (A, B). Gray stars represent comparison of all experimental groups with the unstimulated control, and black stars represent comparison between drug-treated groups and cells treated with PMA only (NT) (D). See also FIGS. 5A-J.
FIGS. 5A-J. Class I/II HDACs drive NET formation. • A) Quantification of extracellular DNA released by neutrophils treated, or not, with 1 μM GSK484 for 1 h and then stimulated with 1 μM PMA for 4 hours. Unstimulated, neutrophils not treated with drugs were used as a control. • B) Freshly purified human neutrophils were treated with the indicated HDAC inhibitors at different doses (0.08, 0.4, 2 and 10 μM) for 1 hour. Extracellular DNA release was assessed in the supernatant 3 hours after PMA stimulation. The dotted line represents the amount of DNA released from neutrophils treated with PMA alone. “-”: cells treated with the highest dose of the indicated drug but not activated with PMA. • C) Freshly purified human neutrophils were stimulated for 1 h, 3 h or 5 h. Cells were fixed and stained with an anti-CitH3 antibody. NETosis induction was measured as level of anti-CitH3 fluorescent signal. 5h-PMA treatment represents 100% NET induction. • D) Representative images of freshly isolated human neutrophils treated or not with 10 μM of the indicated drugs and stimulated with 1 μM PMA for 3 hours. Cells were fixed and then stained for CitH3 (red) and nuclei (blue). Scale bar=100 μm. • E) Murine neutrophils were treated with ricolinostat or GSK484 and then stimulated with […] for 3 hours. NET induction was measured as in (C). […]

[2] = system: human neutrophils; test: Immunoblot of PMA-treated human neutrophils (cell death markers, histone H3 acetylation and citrullination); format: cell-based; conditions: for PMA-induced gasdermin D (GSDMD) cleavage: 1 μM PMA; for PMA-induced gasdermin D (GSDMD) cleavage / activation of apoptosis or necroptosis: immunoblot FIG. 1E; for activation of apoptosis or necroptosis: PMA-treated cells exposed to drug; for H3 citrullination: compared with cells treated with PMA only
[3] = system: mice treated with S. aureus; test: S. aureus pulmonary infection model (bacterial pneumonia); format: in vivo, mouse; conditions: for NETosis (citrullinated histone H3 and MPO-DNA complexes in BALF): ELISA, FIGS. 3E and 3F; for bacterial control (S. aureus CFU in lung homogenates): FIG. 3D; for numbers of neutrophils in the BALF: FIG. 3I; for neutrophils circulating in the blood: FIGS. 3H, 7A; for lung barrier alteration (albumin content in BALF): compared with S. aureus alone, FIG. 3C; for citrullinated histone H3-positive neutrophils in the BALF: cytofluorimetric quantification, FIG. 3G; for IL-1β / IL-6: in the BALF, compared with S. aureus only, FIGS. 7B-7D

O=C(CCCCCCNC(=O)c1cnc(N(c2ccccc2)c2ccccc2)nc1)NO [ricolinostat]
NET formation (level of CitH3), two independent donors ([1]; 10, 2, 0.4, 0.08 μM for 1 h, then 1 μM PMA, FIGS. 5H, 5I): inhibited NET formation to a comparable extent | NETosis (anti-CitH3 signal), comparison of class I/IIb and class IIb selective inhibitors ([1]; drugs 10, 2, 0.4, 0.08 μM 1 hour, then 1 μM PMA 3 hours, FIG. 5F): class I/IIb HDAC inhibition prevented NETosis | NET induction, measured as CitH3 staining [1]: prevented NET release in a dose-dependent manner with an efficacy comparable with GSK484 | PMA-induced gasdermin D (GSDMD) cleavage [2]: not altered | activation of apoptosis or necroptosis [2]: excluded the activation of apoptosis or necroptosis | H3 citrullination ([2]; FIGS. 1E and 1F): significantly decreased | histone H3 acetylation ([2]; untreated as well as PMA-treated cells, FIGS. 1E and 1F): boosted | NETosis (citrullinated histone H3 and MPO-DNA complexes in BALF) [3]: potently decreased | bacterial control (S. aureus CFU in lung homogenates) [3]: not affected | numbers of neutrophils in the BALF [3]: increased numbers | neutrophils circulating in the blood [3]: no major differences | lung barrier alteration (albumin content in BALF) [3]: prevented | citrullinated histone H3-positive neutrophils in the BALF [3]: inhibit NETosis | IL-1β [3]: significantly decreased | IL-6 [3]: significantly decreased | morbidity (body temperature) ([3]; ricolinostat 30 mg/kg/dose i.p. at -24 h and -3 h, compared with S. aureus only and with S. aureus and GSK484, FIG. 3B): significantly decreased

COc1cc(C(=O)N2CC[C@@H](O)[C@@H](N)C2)cc2nc(-c3cc4ccccc4n3CC3CC3)n(C)c12 [GSK484]
NET induction, measured as CitH3 staining [1]: dramatically reduced NET induction | PMA-induced gasdermin D (GSDMD) cleavage [2]: not altered | activation of apoptosis or necroptosis [2]: excluded the activation of apoptosis or necroptosis | H3 citrullination ([2]; FIGS. 1E and 1F): completely abrogated | NETosis (citrullinated histone H3 and MPO-DNA complexes in BALF) [3]: potently decreased | bacterial control (S. aureus CFU in lung homogenates) [3]: not affected | numbers of neutrophils in the BALF [3]: increased numbers | neutrophils circulating in the blood [3]: no major differences | lung barrier alteration (albumin content in BALF) [3]: prevented | citrullinated histone H3-positive neutrophils in the BALF [3]: inhibit NETosis | IL-1β [3]: significantly decreased | IL-6 [3]: significantly decreased

— patent US20240366594A1, “Small Molecule Inhibitors of Formation of Neutrophil-Derived Extracellular Traps (NETosis) and Uses Thereof” (The Brigham and Women's Hospital, Inc., priority 2021, published 2024)
